Reference: US9924717B2, “Molecules having pesticidal utility, and intermediates, compositions, and processes, related thereto” (Dow AgroSciences LLC, priority 2016, dated 2018)
Read-outs that look alike come from different tables or passages of the source.

Experiments:
[1] = test system: Cabbage Looper (Trichoplusia ni, TRIPNI) (CL); assay: Bioassays on Cabbage Looper (CL), 128-well diet tray assay; assay type: in vivo; conditions: for pest or weed control at 50 µg/cm2: Table ABC rating, Cabbage Looper; for mortality at 5 µg/cm2: 168 h, diet tray, second instar larvae, five to seven days, read-out: Percent control (or mortality) CL
Description: (§1) Example A: Bioassays on Beet Armyworm (Spodoptera exigua, LAPHEG) (“BAW”), Corn Earworm (Helicoverpa zea, Helize) (“CEW”), and Cabbage Looper (Trichoplusia ni, TRIPNI) (“CL”)
(§2) Certain molecules disclosed in this document were tested against BAW, CEW, and CL using procedures described in the following examples. In the reporting of the results, the “BAW, CEW, & CL Rating Table” was used (See Table Section).
Bioassays on CL were conducted using a 128-well diet tray assay. one to five second instar CL larvae were placed in each well (3 mL) of the diet tray that had been previously filled with 1 mL of artificial diet to which 50 μg/cm^2 of the test molecule (dissolved in 50 μL of 90:10 acetone-water mixture) had been applied (to each of eight wells) and then allowed to dry. Trays were covered with a clear self-adhesive cover and held at 25° C., 14:10 light-dark for five to seven days. Percent mortality was recorded for the larvae in each well; activity in the eight wells was then averaged. The results are indicated in the table entitled “Table ABC: Biological Results” (See Table Section).
(§3) Bioassays on BAW and CL were conducted according to the procedures outlined in Example A: Bioassays on Beet Armyworm (“BAW”) and Cabbage Looper (“CL”) using the indicated concentrations.

[2] = test system: Beet Armyworm (Spodoptera exigua, LAPHEG) (BAW); assay: Bioassays on Beet Armyworm (BAW), 128-well diet tray assay; assay type: in vivo; conditions: for pest or weed control at 50 µg/cm2: Table ABC rating, Beet Armyworm; for mortality at 5 µg/cm2: 168 h, diet tray, second instar larvae, five to seven days, read-out: Percent control (or mortality) BAW
Description: as §1, §2
Bioassays on BAW were conducted using a 128-well diet tray assay. one to five second instar BAW larvae were placed in each well (3 mL) of the diet tray that had been previously filled with 1 mL of artificial diet to which 50 μg/cm^2 of the test molecule (dissolved in 50 μL of 90:10 acetone-water mixture) had been applied (to each of eight wells) and then allowed to dry. Trays were covered with a clear self-adhesive cover and held at 25° C., 14:10 light-dark for five to seven days. Percent mortality was recorded for the larvae in each well; activity in the eight wells was then averaged. The results are indicated in the table entitled “Table ABC: Biological Results” (See Table Section).
as §3

[3] = 5 μg/cm^2 (first BAW/CL column pair)
[4] = 5 μg/cm^2 as printed (second BAW/CL column pair)

Row | SMILES | pest or weed control at 50 µg/cm2 [1] [%] | pest or weed control at 50 µg/cm2 [2] [%] | mortality at 5 µg/cm2 [1, 3] [%] | mortality at 5 µg/cm2 [1, 4] [%] | mortality at 5 µg/cm2 [2, 3] [%] | mortality at 5 µg/cm2 [2, 4] [%]
1 | O=C(NC1C[S+]([O-])C1)c1ccc(/C(F)=C/C(c2cc(Cl)c(Cl)c(Cl)c2)C(F)(F)F)cc1C(F)(F)F (stereo not drawn) [PF3] | 50 to 100 | 50 to 100 |  |  |  | 
2 | O=C(NC1CCC(F)(F)CC1)c1ccc(/C(F)=C/C(c2cc(Cl)c(Cl)c(Cl)c2)C(F)(F)F)cc1C(F)(F)F (stereo not drawn) [F4, (Z)—N-(4,4-Difluorocyclohexyl)-4-(1,4,4,4-tetrafluoro-3-(3,4,5-trichlorophenyl)but-1-en-1-yl)-2-(trifluoromethyl)benzamide] | 50 to 100 | 50 to 100 |  |  |  | 
3 | Cc1cc(/C(F)=C/C(c2cc(Cl)c(Cl)c(Cl)c2)C(F)(F)F)ccc1C(=O)NCC(F)(F)F (stereo not drawn) [F39, (Z)-2-Methyl-4-(1,4,4,4-tetrafluoro-3-(3,4,5-trichlorophenyl)but-1-en-1-yl)-N-(2,2,2-trifluoroethyl)benzamide] | 50 to 100 | 50 to 100 | 100 | 100 | 33 | 27
4 | CC(NC(=O)c1ccc(/C(F)=C/C(c2cc(Cl)c(Br)c(Cl)c2)C(F)(F)F)cc1C(F)(F)F)C(F)(F)F (stereo not drawn) [F38, 4-((Z)-3-(4-Bromo-3,5-dichlorophenyl)-1,4,4,4-tetrafluorobut-1-en-1-yl)-2-(trifluoromethyl)-N-(1,1,1-trifluoropropan-2-yl)benzamide] | 50 to 100 | 50 to 100 |  |  |  | 
5 | O=C(NCC(F)(F)F)c1ccc(/C(F)=C/C(c2cc(Cl)c(Cl)c(Cl)c2)C(F)(F)F)cc1C(F)(F)F (stereo not drawn) [F1, (Z)-4-(1,4,4,4-tetrafluoro-3-(3,4,5-trichlorophenyl)but-1-en-1-yl)-N-(2,2,2-trifluoroethyl)-2-(trifluoromethyl)benzamide] | 50 to 100 | 50 to 100 | 100 | 100 | 100 | 100
6 | C[C@H](CNCC(F)(F)F)NC(=O)c1ccc(/C(F)=C/C(c2cc(Cl)c(Cl)c(Cl)c2)C(F)(F)F)cc1C(F)(F)F (stereo partly drawn) [F61, 4-((Z)-1,4,4,4-Tetrafluoro-3-(3,4,5-trichlorophenyl)but-1-en-1-yl)-N—((R)-1-((2,2,2-trifluoroethyl)amino)propan-2-yl)-2-(trifluoromethyl)benzamide] | 50 to 100 | 50 to 100 |  |  |  | 
7 | O=C(NC1CSC1)c1ccc(/C(F)=C/C(c2cc(Cl)c(Cl)c(Cl)c2)C(F)(F)F)cc1C(F)(F)F (stereo not drawn) [PF2, (Z)-4-(1,4,4,4-Tetrafluoro-3-(3,4,5-trichlorophenyl)but-1-en-1-yl)-N-(thietan-3-yl)-2-(trifluoromethyl)benzamide] | 50 to 100 | 50 to 100 |  |  |  | 
8 | O=C(NCC(F)(F)F)c1ccc(/C(F)=C/C(c2cc(Cl)c(Cl)c(Cl)c2)C(F)(F)F)cc1 (stereo not drawn) [FC1, (Z)-4-(1,4,4,4-tetrafluoro-3-(3,4,5-trichlorophenyl)but-1-en-1-yl)-N-(2,2,2-trifluoroethyl)benzamide] |  |  | 100 | 6 | 25 | 0
9 | O=C(NC1CCC(F)(F)CC1)c1ccc(/C(F)=C/C(c2cc(Cl)c(Cl)c(Cl)c2)C(F)(F)F)cc1Br (stereo not drawn) [F10, (Z)-2-Bromo-N-(4,4-difluorocyclohexyl)-4-(1,4,4,4-tetrafluoro-3-(3,4,5-trichlorophenyl)but-1-en-1-yl)benzamide] | 50 to 100 | 50 to 100 |  |  |  | 
10 | COc1cccc([C@@H](C)NC(=O)c2ccc(/C(F)=C/C(c3cc(Cl)c(Cl)c(Cl)c3)C(F)(F)F)cc2C(F)(F)F)c1 (stereo partly drawn) [F14, N—((R)-1-(3-Methoxyphenyl)ethyl)-4-((Z)-1,4,4,4-tetrafluoro-3-(3,4,5-trichlorophenyl)but-1-en-1-yl)-2-(trifluoromethyl)benzamide] | 50 to 100 | 50 to 100 |  |  |  | 
